Reference: patent publication US20240246920A1, “TRIAZOLE DERIVATIVES WITH ANTIFUNGAL ACTIVITY” (King's College London, priority 2020, published 2024)
≈ marks a conversion by molar mass, not a printed value. Read-outs that look alike come from different tables or passages of the source.

Columns and labels:
[1] = tested on: Aspergillus fumigatus ATCC 1028; test: Aspergillus panel MIC; format: cell-based; conditions: Table 8
Protocol: (§1) Starter cultures of fungal strains to be tested were grown in 3 mL of RPMI 2% glucose media incubated at 37° C. with shaking at 200 rpm overnight. The culture media used was 900 mL H2O; 10.4 g RPMI 1640 (with L-glutamine and a pH indicator but without bicarbonate); 34.5 g MOPS and 18 g glucose. The pH of the media was adjusted to 7.0 with 1 M sodium hydroxide.
(§2) Solutions of the compound to be tested were prepared by dissolving the compound in DMSO and subsequently into media to the desired concentrations. 200 μL of compound solution was then added to the wells of the 96-well plate using a serial dilution method row-by row of the plate to give a compound concentration gradient across the plate of from 128 μg/mL to 0.25 μg/mL. The last two rows of each plate were control rows containing the culture media alone and the media plus fungi.
(§3) The fungi starter cultures were diluted 1:10 in water in cuvettes. This was then further diluted to an optical density (OD600) of 0.01 in media. 100 μL of the fungi was added to each well giving a starting concentration of fungus of 0.5-5×10^5/mL. One species of fungus was used on each plate. The plates were then held at 37° C. for 24 hours.
(§4) A plate reader was used to measure growth in each well at OD530 nm and the MIC was determined for each test compound. The MIC is defined as the lowest concentration giving rise to inhibition of ≥50% of that of the drug-free control well containing the fungus and media.
(§5) The compound of Example 2 (which corresponds to compound number 2) was tested against a panel of Aspergillus strains using a method analogous to that described above for the Candida Panel.

[2] = tested on: Aspergillus fulavus ATCC 204304; test: Aspergillus panel MIC; format: cell-based; conditions: Table 8
Protocol: as §1, §2, §3, §4, §5

[3] = tested on: Aspergillus fumigatus ATCC 16424; test: Aspergillus panel MIC; format: cell-based; conditions: Table 8
Protocol: as §1, §2, §3, §4, §5

[4] = tested on: Aspergillus carbonarius ATCC 8740; test: Aspergillus panel MIC; format: cell-based; conditions: Table 8
Protocol: as §1, §2, §3, §4, §5

[5] = tested on: Aspergillus fumigatus ATCC 204305; test: Aspergillus panel MIC; format: cell-based; conditions: Table 8
Protocol: as §1, §2, §3, §4, §5

[6] = tested on: Aspergillus fumigatus ATCC 10894; test: Aspergillus panel MIC; format: cell-based; conditions: Table 8
Protocol: as §1, §2, §3, §4, §5

[7] = tested on: Aspergillus fumigatus ATCC 13073; test: Aspergillus panel MIC; format: cell-based; conditions: Table 8
Protocol: as §1, §2, §3, §4, §5

Candida auris TDG2512 = test: Candida panel MIC, serial dilution in 96-well plates; format: cell-based; conditions: Candidozyma auris, TDG2512; Table 4, extended panel; 24 hours, ≥50% inhibition; read-out: MIC Candida auris TDG2512
Method in brief: (§6)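 RPMI/MOPS/2% glucose pH 7.0; 2-fold series 128→0.25 μg/mL; inoculum 0.5-5×10^5/mL; 37 °C, 24 h; OD530 read; MIC at ≥50% growth inhibition vs drug-free control.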

C. auris TDG1912 = test: as above; format: cell-based; conditions: Candidozyma auris, TDG1912; Table 4; 24 hours, ≥50% inhibition; read-out: MIC C. auris TDG1912
Method in brief: as §6

Candida auris TDG1102 = test: as above; format: cell-based; conditions: Candidozyma auris, read-out: MIC Candida auris TDG1102
Method in brief: as §6

C. tropicalis NCPF8760 = test: as above; format: cell-based
Method in brief: as §6

C. parapsilosis NCPF3209 = test: microbe, parasite or virus in culture; format: cell-based, Candida parapsilosis; conditions: Lodderomyces parapsilosis
Method in brief: (§7)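 MIC taken as lowest concentration inhibiting growth ≥50% relative to drug-free control, from OD530 after 24 hours at 37° C. Fungi at 0.5-5×10^5/mL were exposed to serially diluted compound in RPMI 1640/MOPS/2% glucose medium adjusted to pH 7.0.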

Aspergillus strains = test: Aspergillus panel MIC, statement on the whole panel; format: cell-based; conditions: Table 8, in words
Protocol: as §5

C. albicans 8112 = test: Candida albicans panel MIC; format: cell-based; conditions: Table 6, Candida albicans panel
Protocol: (§8) The minimum inhibitory concentration of test compounds were determined in a panel of Candida species (see Table 4 below), using the a serial dilution method in 96-well plates using the following protocol.
as §1, §2, §3, §4
(§9) The compounds shown in Table 6 were tested against a further panel of Candida albicans.

C. albicans 3645 = test: Candida albicans panel MIC; format: cell-based; conditions: Table 6, Candida albicans panel
Protocol: as §8, §1, §2, §3, §4, §9

C. albicans 3363 = test: Candida albicans panel MIC; format: cell-based; conditions: Table 6, Candida albicans panel
Protocol: as §8, §1, §2, §3, §4, §9

C. albicans 3880 = test: Candida albicans panel MIC; format: cell-based; conditions: Table 6, Candida albicans panel
Protocol: as §8, §1, §2, §3, §4, §9

C. albicans 3881 = test: Candida albicans panel MIC; format: cell-based; conditions: Table 6, Candida albicans panel
Protocol: as §8, §1, §2, §3, §4, §9

C. albicans 3882 = test: Candida albicans panel MIC; format: cell-based; conditions: Table 6, Candida albicans panel
Protocol: as §8, §1, §2, §3, §4, §9

C. albicans 3990 = test: Candida albicans panel MIC; format: cell-based; conditions: Table 6, Candida albicans panel
Protocol: as §8, §1, §2, §3, §4, §9

Candida auris TDG2211 = test: microbe, parasite or virus in culture; format: cell-based; conditions: Candidozyma auris, TDG2211; Table 4, extended panel; 24 hours, ≥50% inhibition; read-out: MIC Candida auris TDG2211
Method in brief: (§10)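 Growth inhibition was scored by OD530 nm after a 24 h, 37° C incubation of C. auris (0.5-5×10^5/mL) with compound dilutions in buffered RPMI glucose medium.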

Candida auris TDG2506 = test: microbe, parasite or virus in culture; format: cell-based; conditions: Candidozyma auris, TDG2506; Table 4, extended panel; 24 hours, ≥50% inhibition; read-out: MIC Candida auris TDG2506
Method in brief: as §10

panel of Candida species = test: Candida panel MIC, statements on the whole panel; format: cell-based; conditions: in words
Protocol: as §8, §1, §2, §3, §4

C. krusei NCPF3876 = test: microbe, parasite or virus in culture; format: cell-based, Candida krusei; conditions: Pichia kudriavzevii
Method in brief: as §7

C. glabrata NCPF8018 = test: Candida panel MIC, serial dilution in 96-well plates; format: cell-based, Candida glabrata; conditions: Nakaseomyces glabratus
Method in brief: as §7

C. albicans NCPF3281 = test: as above; format: cell-based, Candida albicans; conditions: NCPF3281, read-out: MIC C. albicans NCPF3281
Method in brief: as §6

C. auris 8977 = test: as above; format: cell-based, Candida auris; conditions: Candidozyma auris, 8977; Table 4, extended panel; 24 hours, ≥50% inhibition; read-out: MIC C. auris 8977
Method in brief: as §10

C. auris 8971 = test: as above; format: cell-based, Candida auris; conditions: Candidozyma auris, 8971; Table 4, extended panel; 24 hours, ≥50% inhibition; read-out: MIC C. auris 8971
Method in brief: as §10

C. auris 8984 = test: as above; format: cell-based, Candida auris; conditions: Candidozyma auris, 8984; Table 4, extended panel; 24 hours, ≥50% inhibition; read-out: MIC C. auris 8984
Method in brief: as §10

[8] = NCPF8760, Table 4, common panel, 24 hours, ≥50% inhibition, read-out: MIC C. tropicalis NCPF8760
[9] = NCPF3209, Table 4, common panel, 24 hours, ≥50% inhibition, read-out: MIC C. parapsilosis NCPF3209
[10] = NCPF3876, Table 4, common panel, 24 hours, ≥50% inhibition, read-out: MIC C. krusei NCPF3876
[11] = NCPF8018, Table 4, common panel, 24 hours, ≥50% inhibition, read-out: MIC C. glabrata NCPF8018
[12] = Candida albicans, Table 4, common panel, 24 hours, ≥50% inhibition

## N#Cc1ccc(-c2ccc(NC3CCN(CC(O)(Cn4cncn4)c4ccc(F)cc4F)CC3)cc2)cc1 (stereo not drawn) [Compound number 2, 4′-((1-(2-(2,4-difluorophenyl)-2-hydroxy-3-(1H-1,2,4-triazol-1-yl)propyl)piperidin-4-yl)amino)-[1,1′-biphenyl]-4-carbonitrile]
[1]
  Minimum inhibitory concentration Aspergillus fumigatus ATCC 1028: 0.25
[2]
  Minimum inhibitory concentration Aspergillus fulavus ATCC 204304: 0.5
[3]
  Minimum inhibitory concentration Aspergillus fumigatus ATCC 16424: ≤0.125
[4]
  Minimum inhibitory concentration Aspergillus carbonarius ATCC 8740: 0.25
[5]
  Minimum inhibitory concentration Aspergillus fumigatus ATCC 204305: ≤0.125
[6]
  Minimum inhibitory concentration Aspergillus fumigatus ATCC 10894: 0.25
[7]
  Minimum inhibitory concentration Aspergillus fumigatus ATCC 13073: ≤0.125

## N#Cc1ccc(-c2ccc(NC3CCN(CC(O)(Cn4cncn4)c4ccc(F)cc4F)CC3)cc2)cc1 (stereo not drawn) [Example 2, 4′-((1-(2-(2,4-difluorophenyl)-2-hydroxy-3-(1H-1,2,4-triazol-1-yl)propyl)piperidin-4-yl)amino)-[1,1′-biphenyl]-4-carbonitrile]
Candida auris TDG2512
  MIC: ≤ 3 ng/mL
C. auris TDG1912
  MIC: 30 ng/mL (≈ 0.0583 µM)
Candida auris TDG1102; TDG1102, 24 h
  MIC: 3 to 500 ng/mL (≈ 0.00583 to 0.972 µM)
C. tropicalis NCPF8760; [8]
  MIC: 3 to 250 ng/mL (≈ 0.00583 to 0.486 µM)
C. parapsilosis NCPF3209; [9]
  MIC: ≤ 3 ng/mL
Aspergillus strains
  Effectiveness against the Aspergillus strains tested compared to fluconazole: highly effective
C. albicans 8112
  MIC: 1.95 to 7.81 ng/mL (≈ 0.00379 to 0.0152 µM)
C. albicans 3645
  MIC: 3.91 ng/mL (≈ 0.0076 µM)
C. albicans 3363
  MIC: 7.81 to 125 ng/mL (≈ 0.0152 to 0.243 µM)
C. albicans 3880
  MIC: 7.81 ng/mL (≈ 0.0152 µM)
C. albicans 3881
  MIC: 15.6 ng/mL (≈ 0.0303 µM)
C. albicans 3882
  MIC: 31.3 ng/mL (≈ 0.0608 µM)
C. albicans 3990
  MIC: 15.6 ng/mL (≈ 0.0303 µM)
Candida auris TDG2211
  MIC: 250 ng/mL (≈ 0.486 µM)
Candida auris TDG2506
  MIC: 3 to 150 ng/mL (≈ 0.00583 to 0.291 µM)
Panel of Candida species
  Activity against Candida auris including resistant strains: highly active
C. krusei NCPF3876; [10]
  MIC: 3 to 125 ng/mL (≈ 0.00583 to 0.243 µM)
C. glabrata NCPF8018; [11]
  MIC: 125 ng/mL (≈ 0.243 µM)
C. albicans NCPF3281; [12]
  MIC: ≤ 3.9 ng/mL
C. albicans NCPF3281; Table 6, Candida albicans panel
  MIC: ≤ 3.9 ng/mL

## Cc1ccc(-c2ccc(NC3CCN(CC(O)(Cn4cncn4)c4ccc(F)cc4F)CC3)cc2)cc1 (stereo not drawn) [Example 3, 2-(2,4-Difluorophenyl)-1-(4-((4′-methyl-[1,1′-biphenyl]-4-yl)amino)piperidin-1-yl)-3-(1H-1,2,4-triazol-1-yl)propan-2-ol]
Candida auris TDG2512
  MIC: ≤ 3 ng/mL
C. auris TDG1912
  MIC: 8 to 60 ng/mL (≈ 0.0159 to 0.119 µM)
Candida auris TDG1102; TDG1102, Table 4, extended panel, 24 hours, ≥50% inhibition
  MIC: ≤ 3 ng/mL
C. tropicalis NCPF8760; [8]
  MIC: 15 ng/mL (≈ 0.0298 µM)
C. tropicalis NCPF8760; NCPF8760, read-out: MIC C. Tropicalis NCPF8760
  MIC: 15 ng/mL (≈ 0.0298 µM)
C. parapsilosis NCPF3209; NCPF3209, read-out: MIC C. Parapsilosis NCPF3209
  MIC: 4 ng/mL (≈ 0.00794 µM)
C. parapsilosis NCPF3209; [9]
  MIC: 4 ng/mL (≈ 0.00794 µM)
C. auris 8977
  MIC: 6 ng/mL (≈ 0.0119 µM)
C. auris 8971
  MIC: 6 ng/mL (≈ 0.0119 µM)
C. auris 8984
  MIC: 6 ng/mL (≈ 0.0119 µM)
Candida auris TDG2211
  MIC: 6 ng/mL (≈ 0.0119 µM)
Candida auris TDG2506
  MIC: 6 ng/mL (≈ 0.0119 µM)
Panel of Candida species
  Activity against Candida auris including resistant strains: highly active
C. krusei NCPF3876; NCPF3876, read-out: MIC C. Krusei NCPF3876
  MIC: 4 to 16 ng/mL (≈ 0.00794 to 0.0318 µM)
C. krusei NCPF3876; [10]
  MIC: 4 to 16 ng/mL (≈ 0.00794 to 0.0318 µM)
C. glabrata NCPF8018; NCPF8018, read-out: MIC C. Glabrata NCPF8018
  MIC: 125 ng/mL (≈ 0.248 µM)
C. glabrata NCPF8018; [11]
  MIC: 125 ng/mL (≈ 0.248 µM)
C. albicans NCPF3281; [12]
  MIC: ≤ 0.98 ng/mL
